In ChEMBL document CHEMBL3627603, “Helical peptide-polyamine and -polyether conjugates as synthetic ionophores” (Bioorg Med Chem, 2015):
≈ marks a conversion by molar mass, not a printed value. Calls of active or inactive are those of the source. No cut-off for these calls is given here. Starred links: 1 amine or outer side, 2 acyl side, 3 side chain; linkers in the order of their positions; H or OH if unused. Non-standard residues stand in square brackets, D forms with d. Residues, ends and D or L forms follow the SMILES beside them. *: point of attachment. HN(CH2CH2O)5CH2CH2NH = C(COCCOCCOCCOCCOCCN[*:2])N[*:1]; X1 = O=C(c1ccc(OP(=O)(O)O)cc1)*; Spermine = NCCCNCCCCNCCCN*; Aib = CC(C)(N)C(=O)O

Columns and labels:
[1] = Induction of lysis of large unilamellar vesicles containing 95:5 egg yolk phosphatidylcholine and phosphatidylglycerol assessed as calcein release at 0.22 mM treated at 400 to 1600 secs by fluorometric analysis; format: functional
[2] = (§1) Ionophoric activity across large unilamellar vesicles containing 95:5 egg yolk phosphatidylcholine and phosphatidylglycerol assessed as apparent first order rate constant for H+ transport at 2% of total concentration of lipids at 25 degC measured after 20 mins by HPTS-based fluorescence assay (reference value: 2 x 10^-4/s); format: ADME
[3] = Ionophoric activity across large unilamellar vesicles containing 95:5 egg yolk phosphatidylcholine and phosphatidylglycerol assessed as apparent first order rate constant for Na+ transport at 1% of total concentration of lipids at 25 degC measured every 30 mins over 14 hrs by 23Na+ NMR analysis; format: ADME
[4] = as §1, with “2.5%” for “2%”; format: ADME
[5] = as §1, with “1.5%” for “2%”; format: ADME
Cryptococcus neoformans = experiment: Antifungal activity against Cryptococcus neoformans clinical isolate after 48 hrs by broth microdilution method; format: functional
Escherichia coli [6] = experiment: Antibacterial activity against Escherichia coli ATCC 25922 after 24 hrs by broth microdilution method; format: functional; conditions: ATCC 25922, 24 h
[7] = as §1, with “3%” for “2%”; format: ADME
Candida albicans = experiment: Antifungal activity against Candida albicans clinical isolate after 48 hrs by broth microdilution method; format: functional
[8] = as §1, with “0.5%” for “2%”; format: ADME
Staphylococcus aureus [9] = experiment: Antibacterial activity against Staphylococcus aureus 34 clinical isolate after 24 hrs by broth microdilution method; format: functional; conditions: Staphylococcus aureus, 34, 24 h
Staphylococcus aureus [10] = experiment: Antibacterial activity against methicillin-resistant Staphylococcus aureus 16 clinical isolate after 24 hrs by broth microdilution method; format: functional; conditions: Staphylococcus aureus, 16, 24 h
Escherichia coli [11] = experiment: Induction of inner membrane permeabilization of Escherichia coli ML-35 pYC constitutively expressing cytoplasmic beta-galactosidase/periplasmic beta-lastamase assessed as Gal-ONp hydrolysis at 64 uM by microplate reader analysis; format: functional, organism-based
[12] = as §1, with “1%” for “2%”; format: ADME
Escherichia coli [13] = experiment: Induction of outer membrane permeabilization of Escherichia coli ML-35 pYC constitutively expressing cytoplasmic beta-galactosidase/periplasmic beta-lastamase assessed as CENTA hydrolysis at 64 uM by microplate reader analysis; format: functional, organism-based
Pseudomonas aeruginosa = experiment: Antibacterial activity against Pseudomonas aeruginosa ATCC 27853 after 24 hrs by broth microdilution method; format: functional; conditions: ATCC 27853, 24 h
[14] = Ionophoric activity across large unilamellar vesicles containing 95:5 egg yolk phosphatidylcholine and phosphatidylglycerol assessed as apparent first order rate constant for Na+ transport at 0.5% of total concentration of lipids at 25 degC measured every 30 mins over 14 hrs by 23Na+ NMR analysis; format: ADME
[15] = Ionophoric activity across large unilamellar vesicles containing 95:5 egg yolk phosphatidylcholine and phosphatidylglycerol assessed as apparent first order rate constant for Na+ transport at 1.5% of total concentration of lipids at 25 degC measured every 30 mins over 14 hrs by 23Na+ NMR analysis; format: ADME
Escherichia coli [16] = experiment: Induction of outer membrane permeabilization of Escherichia coli ML-35 pYC constitutively expressing cytoplasmic beta-galactosidase/periplasmic beta-lastamase assessed as CENTA hydrolysis at 256 uM by microplate reader analysis; format: functional, organism-based
Escherichia coli [17] = experiment: Induction of inner membrane permeabilization of Escherichia coli ML-35 pYC constitutively expressing cytoplasmic beta-galactosidase/periplasmic beta-lastamase assessed as Gal-ONp hydrolysis at 256 uM by microplate reader analysis; format: functional, organism-based
[18] = Ionophoric activity across large unilamellar vesicles containing 95:5 egg yolk phosphatidylcholine and phosphatidylglycerol assessed as apparent first order rate constant for Na+ transport at 2% of total concentration of lipids at 25 degC measured every 30 mins over 14 hrs by 23Na+ NMR analysis; format: ADME
[19] = Ionophoric activity across large unilamellar vesicles containing 95:5 egg yolk phosphatidylcholine and phosphatidylglycerol assessed as apparent first order rate constant for Na+ transport at 0.2% of total concentration of lipids at 25 degC measured every 30 mins over 14 hrs by 23Na+ NMR analysis; format: ADME
[20] = Ionophoric activity across large unilamellar vesicles containing 95:5 egg yolk phosphatidylcholine and phosphatidylglycerol assessed as apparent first order rate constant for Na+ transport at 3% of total concentration of lipids at 25 degC measured every 30 mins over 14 hrs by 23Na+ NMR analysis; format: ADME

Compound	Activity [1]	Kapp [2]	Activity [3]	Kapp [4]	Kapp [5]	MIC (Cryptococcus neoformans)	MIC (Escherichia coli [6])	MIC (Candida albicans)	Kapp [8]	MIC (Staphylococcus aureus [9])	MIC (Staphylococcus aureus [10])	Kapp [12]	MIC (Pseudomonas aeruginosa)	other results
CC(C)(NC(=O)c1ccc(OP(=O)(O)O)cc1)C(=O)NC(C)(C)C(=O)NC(C)(C)C(=O)NC(C)(C)C(=O)NC(C)(C)C(=O)NC(C)(C)C(=O)NC(C)(C)C(=O)NC(C)(C)C(=O)NCCCNCCCCNCCCN (X1-[Aib][Aib][Aib][Aib][Aib][Aib][Aib][Aib]-Spermine)	inactive	1.98 ×10⁻² /s	Not Active	3.62 ×10⁻² /s	1.73 ×10⁻² /s	16 µM (≈ 17.3 µg/mL)	32 µM (≈ 34.7 µg/mL)	32 µM (≈ 34.7 µg/mL)	4.08 ×10⁻³ /s	16 µM (≈ 17.3 µg/mL)	32 µM (≈ 34.7 µg/mL)	5.24 ×10⁻³ /s	64 µM (≈ 69.3 µg/mL)	Kapp [7]: 6.77 ×10⁻² /s; Activity (Escherichia coli [11]): Active; Activity (Escherichia coli [13]): Active
CC(C)(NC(=O)c1ccc(OP(=O)(O)O)cc1)C(=O)NC(C)(C)C(=O)NC(C)(C)C(=O)NC(C)(C)C(=O)NC(C)(C)C(=O)NC(C)(C)C(=O)NC(C)(C)C(=O)NC(C)(C)C(=O)NCCOCCOCCOCCOCCOCCN (X1-[Aib][Aib][Aib][Aib][Aib][Aib][Aib][Aib]-{HN(CH2CH2O)5CH2CH2NH})	inactive	2.59 ×10⁻² /s	–	4.89 ×10⁻² /s	1.78 ×10⁻² /s	> 128 µM	> 128 µM	> 128 µM	4.96 ×10⁻³ /s	> 128 µM	> 128 µM	7.71 ×10⁻³ /s	> 128 µM	Kapp [14]: 0.0037 min⁻¹; Kapp [15]: 0.0078 min⁻¹; Activity (Escherichia coli [16]): inactive; Activity (Escherichia coli [17]): inactive; Kapp [3]: 0.0063 min⁻¹; Kapp [18]: 0.0102 min⁻¹; Kapp [19]: 0.0017 min⁻¹; Kapp [20]: 0.015 min⁻¹
C[C@@H]1[C@H](O)[C@@H](C)/C=C/C=C/C=C/C=C/C=C/C=C/C=C/[C@H](O[C@@H]2O[C@H](C)[C@@H](O)[C@H](N)[C@@H]2O)C[C@@H]2O[C@](O)(C[C@@H](O)C[C@@H](O)[C@H](O)CC[C@@H](O)C[C@@H](O)CC(=O)O[C@H]1C)C[C@H](O)[C@H]2C(=O)O [AMPHOTERICIN B]	–	–	Active	–	–	–	–	–	–	–	–	–	–	Activity [12]: Active
CC(C)[C@@H](CC[C@@H](C)[C@H]1CC[C@H]2[C@@H]3[C@H](O)C[C@H]4C[C@@H](NCCCNCCCCN)CC[C@]4(C)[C@H]3CC[C@]12C)OS(=O)(=O)O [SQUALAMINE]	–	–	–	–	–	–	1 µM (≈ 0.628 µg/mL)	4 µM (≈ 2.51 µg/mL)	–	1 µM (≈ 0.628 µg/mL)	–	–	4 µM (≈ 2.51 µg/mL)	–
